The text below walks through data of patent publication US4880804A (E. I. Du Pont De Nemours and Company, priority 1988, dated 1989).

For one data set, the system named is renal hypertensive rats. The data set is described as follows: Antihypertensive effects in renal hypertensive rats. The class given is in vivo, rat. The settings on record: class symbol. As for the experimental part: This procedure increases blood pressure by increasing renin production with consequent elevation of AII levels. Compounds are administered orally and/or intravenously via a cannula in the jugular vein. Arterial blood pressure is continuously measured directly through a cartoid artery cannula and recorded using a pressure transducer and a polygraph. Blood pressure levels after treatment are compared to pretreatment levels to determine the antihypertensive effects of the compounds (See Table 4).

A further data set addresses AII receptor. Kind of data set: Angiotensin II receptor binding, displacement of 3H-AII. The settings on record: read-out: Angiotensin II Receptor Binding IC50; rat adrenal cortical microsomes, 2 nM 3H-AII, 1 hour, room temperature. As for the experimental part:
The reaction mixture contained rat adrenal cortical microsomes (source of AII receptor) in Tris buffer and 2 nM of ^3 H-AII with or without potential AII antagonist. This mixture was incubated for 1 hour at room temperature and the reaction was subsequently terminated by rapid filtration and rinsing through glass microfibre filter. Receptor-bound ^3 H-AII trapped in filter was quantitated by scintillation counting.
Background: Loss of bound radioactivity is the signal in a displacement assay; it reports binding, not function.

Data set [1] deals with AII. The settings on record: cited from earlier work.
The subject of data set [2] is AII. The settings on record: cited from earlier work. This is another data set of the same source.

In general, IC50 refers to the concentration that inhibits the measured activity by half. For the compound `COCc1nc2cc(CO)ccc2n1Cc1ccc(-c2ccccc2C(=O)O)cc1` [Example 35], the “Antihypertensive Effects in Renal Hypertensive Rats, Intravenous Activity” value (from here on “Antihypertensive Effects … Intravenous Activity”) in the data set on renal hypertensive rats was “+ (Significant decrease in blood pressure at 10 mg/kg or less.)”. The IC50 at AII receptor came to 21 µM.
In the same order, the values of `CCCCc1nc2cc(OC)ccc2n1Cc1ccc(-c2ccccc2C(=O)O)cc1` [Example 30] are “+ (Significant decrease in blood pressure at 10 mg/kg or less.)” and 1 µM.
As for `CCOC(=O)CCc1nc2ccccc2n1Cc1ccc(NC(=O)c2ccccc2NS(=O)(=O)C(F)(F)F)cc1` [Example 6], the IC50 on AII receptor is 2.8 µM.
For the compound `CCCCc1nc2cc(Cl)ccc2n1Cc1ccc(-c2ccccc2C(=O)O)cc1` [Example 38], the “Antihypertensive Effects … Intravenous Activity” value in the data set on renal hypertensive rats is “+ (Significant decrease in blood pressure at 10 mg/kg or less.)”. For the same compound, on AII receptor, the IC50 was 11 µM.
On to `CCCCc1nc2ccc(Cl)cc2n1Cc1ccc(-c2ccccc2C(=O)O)cc1` [Example 33, 2-Butyl-1-[(2'-carboxybiphenyl-4-yl)methyl]-6-chlorobenzimidazole], for which, in the data set with renal hypertensive rats, the “Antihypertensive Effects … Intravenous Activity” value is on record as “+ (Significant decrease in blood pressure at 10 mg/kg or less.)” and the “Antihypertensive Effects in Renal Hypertensive Rats, Oral Activity” value (“Antihypertensive Effects … Oral Activity” below) was “+ (Significant decrease in blood pressure at 100 mg/kg or less.)”. Further, the IC50 on AII receptor was 5 µM.
As for `CCCCc1nc2ccc(OC)cc2n1Cc1ccc(-c2ccccc2C(=O)O)cc1` [Example 29, 1-[(2'-Carboxybiphenyl-4-yl)methyl]-2-butyl-6-methoxybenzimidazole], the “Antihypertensive Effects … Intravenous Activity” value in the data set with renal hypertensive rats is listed as “+ (Significant decrease in blood pressure at 10 mg/kg or less.)”. Also, at AII receptor, the IC50 came to 0.92 µM.
For the compound `CCCCc1nc2ccc(C(=O)O)cc2n1Cc1ccc(-c2ccccc2C(=O)O)cc1` [Example 37], the “Antihypertensive Effects … Intravenous Activity” value with renal hypertensive rats was “+ (Significant decrease in blood pressure at 10 mg/kg or less.)”. The IC50 at AII receptor worked out at 5.7 µM.
Regarding `CNCC(=O)N[C@@H](CCCN=C(N)N)C(=O)N[C@H](C(=O)N[C@@H](Cc1ccc(O)cc1)C(=O)N[C@H](C(=O)N[C@@H](Cc1cnc[nH]1)C(=O)N1CCC[C@H]1C(=O)N[C@@H](C)C(=O)O)C(C)C)C(C)C` [Saralasin], in the data set on AII [1] (in words), the “Antagonism of the actions of AII” value is on record as “one of the most potent competitive antagonists of the actions of AII”. In addition, the “Block of the effects of AII on blood pressure” value in the data set on AII [1] (pithed rats) is on record as “blocks the effects of AII on the blood pressure of pithed rats”. In addition, the “Lowering of arterial pressure” value in the data set on AII [2] (elevated pressure dependent on circulating AII) is “lower arterial pressure in mammals and man when the (elevated) pressure is dependent on circulating AII”. For the same compound, the Oral effectiveness result in the data set with AII [2] (oral) is “oral doses being ineffective”. In the data set on AII [2] (parenteral administration), the “Duration of pharmacological effects” value is given as “relatively short-lasting”. For the same compound, the “Pressor effects (agonistic character)” value with AII [2] (pressure not sustained by AII) is “generally elicits pressor effects when the pressure is not sustained by AII”.
Take `CCOC(=O)C(Cc1nc2ccccc2n1Cc1ccc(NC(=O)c2ccccc2C(=O)O)cc1)C(=O)OCC` [Example 1, 3-[1-(4-(2-Carboxybenzamido)benzyl)benzimidazol-2-yl]-2-(carboethoxy)propanoic acid, ethyl ester]: the IC50 on AII receptor amounted to 8.3 µM.
With `CCCCc1nc2ccc(CO)cc2n1Cc1ccc(-c2ccccc2C(=O)O)cc1` [Example 27, 2-Butyl-1-[(2'-Carboxybiphenyl-4-yl)methyl]-6-hydroxymethylbenzimidazole], in the data set on renal hypertensive rats, the “Antihypertensive Effects … Intravenous Activity” value is recorded as “+ (Significant decrease in blood pressure at 10 mg/kg or less.)” and the “Antihypertensive Effects … Oral Activity” value is given as “+ (Significant decrease in blood pressure at 100 mg/kg or less.)”. Also, the IC50 on AII receptor was 0.22 µM.
As to `CCOC(=O)C=Cc1nc2ccccc2n1Cc1ccc(NC(=O)c2ccccc2C(=O)O)cc1` [Example 4, 3-[1-(4-(2-Carboxybenzamido)benzyl)benzimidazol-2-yl]propenoic acid, ethyl ester], the concentration for half-maximal inhibition (IC50) at AII receptor worked out at 15 µM.
For `CCCCc1nc2ccc(C=O)cc2n1Cc1ccc(-c2ccccc2C(=O)O)cc1` [Example 31], the “Antihypertensive Effects … Intravenous Activity” value with renal hypertensive rats is reported as “+ (Significant decrease in blood pressure at 10 mg/kg or less.)”. The IC50 on AII receptor was 1.4 µM.
Regarding `CCCCc1nc2cc(CO)ccc2n1Cc1ccc(-c2ccccc2C(=O)O)cc1` [Example 28, 2-Butyl-1-[(2'-carboxybiphenyl-4-yl)methyl]-5-hydroxymethylbenzimidazole], the “Antihypertensive Effects … Intravenous Activity” value with renal hypertensive rats is “+ (Significant decrease in blood pressure at 10 mg/kg or less.)”. Moreover, the IC50 on AII receptor was 0.37 µM.
In the case of `CCOC(=O)C=Cc1nc2ccccc2n1Cc1ccc(NC(=O)c2ccccc2NS(=O)(=O)C(F)(F)F)cc1` [Example 5], the IC50 on AII receptor turned out to be 29 µM.
For the compound `CCCC=Cc1nc2ccccc2n1Cc1ccc(NC(=O)c2ccccc2C(=O)O)cc1` [Example 3, 1-[4-(2-Carboxybenzamido)benzyl]-2-(1-pentenyl)benzimidazole], the IC50 on AII receptor turned out to be 4.4 µM.
In the case of `CCCCc1nc2cc(C(=O)O)ccc2n1Cc1ccc(-c2ccccc2C(=O)O)cc1` [Example 36], the “Antihypertensive Effects … Intravenous Activity” value in the data set on renal hypertensive rats is given as “+ (Significant decrease in blood pressure at 10 mg/kg or less.)”. On AII receptor, the IC50 worked out at 2.5 µM.
Regarding `CCOC(=O)CCc1nc2ccccc2n1Cc1ccc(NC(=O)c2ccccc2C(=O)O)cc1` [Example 2, 3-[1-(4-(2-Carboxybenzamido)benzyl)benzimidazole-2-yl]-2-propanoic acid, ethyl ester], the IC50 at AII receptor is 2.1 µM.
For the compound `CCC=Cc1nc2ccc(CO)cc2n1Cc1ccc(-c2ccccc2C(=O)O)cc1` [Example 32, 2-(1-Butenyl)-6-hydroxymethyl-1-[(2'-carboxybiphenyl-4-yl)methyl]benzimidazole], in the data set on renal hypertensive rats, the “Antihypertensive Effects … Intravenous Activity” value is given as “+ (Significant decrease in blood pressure at 10 mg/kg or less.)” and the “Antihypertensive Effects … Oral Activity” value is recorded as “+ (Significant decrease in blood pressure at 100 mg/kg or less.)”. Also, on AII receptor, the IC50 was found to be 0.5 µM.
With `COCc1nc2ccc(CO)cc2n1Cc1ccc(-c2ccccc2C(=O)O)cc1` [Example 34], the “Antihypertensive Effects … Intravenous Activity” value in the data set on renal hypertensive rats is reported as “+ (Significant decrease in blood pressure at 10 mg/kg or less.)”. At AII receptor, the half-inhibitory concentration (IC50) was found to be 6.3 µM.
